Measurements taken from PubChem BioAssay (NCI).
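Cultured in 96-well plates, cells were exposed to test compound for 48 hours across five concentrations. At the TGI there is no net growth.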

What follows are molecules tested on SK-OV-3 ovarian (assay: NCI anticancer screen, dose series, 48 h).
`CCOC(=O)/C(=C/c1ccco1)P(=O)(OCC)OCC` gave a TGI of over 100 µM. `O=C(Nc1ccc(S(=O)(=O)N[C@@H](C(=O)O)c2ccccc2)cc1)c1ccc(F)cc1` showed a TGI of over 100 µM. `CC(C)(C)c1nc2c(o1)C(=Nc1ccc(F)cc1)c1ccccc1C2=O` gave a TGI of 45.9 µM. In the case of `C=C1CC2C(=O)N(c3ccccc3)C(=O)C2CC1n1[nH]c(=O)n(Cc2ccccc2)c1=O` (centres undefined), the TGI was over 100 µM. In the case of `c1ccc2c(c1)N=C(c1cccc3ccccc13)CC(c1cccc3ccccc13)S2` (centres undefined), the TGI was 29.8 µM. `NS(=O)(=O)c1ccc(NC(=O)c2cccc3c(=O)c4ccccc4[nH]c23)cc1` showed a TGI of 65.6 µM.

Each molecule was assayed on SF-295 CNS (assay: NCI anticancer screen, dose series, 48 h).
`CCOC(=O)/C(=C/c1ccco1)P(=O)(OCC)OCC` was tested, and the TGI was over 100 µM. `O=C(Nc1ccc(S(=O)(=O)N[C@@H](C(=O)O)c2ccccc2)cc1)c1ccc(F)cc1` was tested, and the TGI was over 100 µM. `CC(C)(C)c1nc2c(o1)C(=Nc1ccc(F)cc1)c1ccccc1C2=O` was tested, and the TGI was 19.6 µM. `C=C1CC2C(=O)N(c3ccccc3)C(=O)C2CC1n1[nH]c(=O)n(Cc2ccccc2)c1=O` (centres undefined) was tested, and the TGI was over 100 µM. `c1ccc2c(c1)N=C(c1cccc3ccccc13)CC(c1cccc3ccccc13)S2` (centres undefined) gave a TGI of 27.2 µM. In the case of `NS(=O)(=O)c1ccc(NC(=O)c2cccc3c(=O)c4ccccc4[nH]c23)cc1`, the TGI was over 100 µM. `COc1ccc(C2=NC(C)(C)CO2)cc1` gave a TGI of over 100 µM.

The molecules below were run on IGROV1 ovarian (assay: NCI anticancer screen, dose series, 48 h).
With `CCOC(=O)/C(=C/c1ccco1)P(=O)(OCC)OCC` the TGI was over 100 µM. With `O=C(Nc1ccc(S(=O)(=O)N[C@@H](C(=O)O)c2ccccc2)cc1)c1ccc(F)cc1` the TGI was over 100 µM. For `CC(C)(C)c1nc2c(o1)C(=Nc1ccc(F)cc1)c1ccccc1C2=O`, the TGI was over 66.7 µM. Work on `C=C1CC2C(=O)N(c3ccccc3)C(=O)C2CC1n1[nH]c(=O)n(Cc2ccccc2)c1=O` (centres undefined) yielded a TGI of over 100 µM. Work on `c1ccc2c(c1)N=C(c1cccc3ccccc13)CC(c1cccc3ccccc13)S2` (centres undefined) yielded a TGI of 19.7 µM. For `NS(=O)(=O)c1ccc(NC(=O)c2cccc3c(=O)c4ccccc4[nH]c23)cc1`, the TGI was over 100 µM. Work on `COc1ccc(C2=NC(C)(C)CO2)cc1` yielded a TGI of over 100 µM.

What follows are molecules tested on M19-MEL melanoma (assay: NCI anticancer screen, dose series, 48 h).
In the case of `CCOC(=O)/C(=C/c1ccco1)P(=O)(OCC)OCC`, the TGI was over 100 µM. In the case of `O=C(Nc1ccc(S(=O)(=O)N[C@@H](C(=O)O)c2ccccc2)cc1)c1ccc(F)cc1`, the TGI was over 100 µM. `CC(C)(C)c1nc2c(o1)C(=Nc1ccc(F)cc1)c1ccccc1C2=O` gave a TGI of 3.08 µM. `C=C1CC2C(=O)N(c3ccccc3)C(=O)C2CC1n1[nH]c(=O)n(Cc2ccccc2)c1=O` (centres undefined) showed a TGI of over 100 µM. Molecule `c1ccc2c(c1)N=C(c1cccc3ccccc13)CC(c1cccc3ccccc13)S2` (centres undefined) has a TGI of 20.3 µM. `NS(=O)(=O)c1ccc(NC(=O)c2cccc3c(=O)c4ccccc4[nH]c23)cc1` gave a TGI of over 100 µM. `COc1ccc(C2=NC(C)(C)CO2)cc1` was tested, and the TGI was over 100 µM.

Each molecule was assayed on K-562 leukemia (assay: NCI anticancer screen, dose series, 48 h).
Work on `CCOC(=O)/C(=C/c1ccco1)P(=O)(OCC)OCC` yielded a TGI of over 100 µM. For `O=C(Nc1ccc(S(=O)(=O)N[C@@H](C(=O)O)c2ccccc2)cc1)c1ccc(F)cc1`, the TGI was over 100 µM. Work on `CC(C)(C)c1nc2c(o1)C(=Nc1ccc(F)cc1)c1ccccc1C2=O` yielded a TGI of over 100 µM. Work on `C=C1CC2C(=O)N(c3ccccc3)C(=O)C2CC1n1[nH]c(=O)n(Cc2ccccc2)c1=O` (centres undefined) yielded a TGI of over 100 µM. `c1ccc2c(c1)N=C(c1cccc3ccccc13)CC(c1cccc3ccccc13)S2` (centres undefined) showed a TGI of 6.32 µM. `NS(=O)(=O)c1ccc(NC(=O)c2cccc3c(=O)c4ccccc4[nH]c23)cc1` was tested, and the TGI was over 100 µM. Molecule `COc1ccc(C2=NC(C)(C)CO2)cc1` has a TGI of over 100 µM.

What follows are molecules tested on HOP-18 NSCLC (assay: NCI anticancer screen, dose series, 48 h).
`CCOC(=O)/C(=C/c1ccco1)P(=O)(OCC)OCC` gave a TGI of over 100 µM. `O=C(Nc1ccc(S(=O)(=O)N[C@@H](C(=O)O)c2ccccc2)cc1)c1ccc(F)cc1` was tested, and the TGI was over 100 µM. With `CC(C)(C)c1nc2c(o1)C(=Nc1ccc(F)cc1)c1ccccc1C2=O` the TGI was 28.8 µM. For `C=C1CC2C(=O)N(c3ccccc3)C(=O)C2CC1n1[nH]c(=O)n(Cc2ccccc2)c1=O` (centres undefined), the TGI was over 100 µM. For `c1ccc2c(c1)N=C(c1cccc3ccccc13)CC(c1cccc3ccccc13)S2` (centres undefined), the TGI was 13.8 µM. With `NS(=O)(=O)c1ccc(NC(=O)c2cccc3c(=O)c4ccccc4[nH]c23)cc1` the TGI was over 100 µM. Molecule `COc1ccc(C2=NC(C)(C)CO2)cc1` has a TGI of over 100 µM.

What follows are molecules tested on SK-MEL-2 melanoma (assay: NCI anticancer screen, dose series, 48 h).
For `CCOC(=O)/C(=C/c1ccco1)P(=O)(OCC)OCC`, the TGI was over 100 µM. `O=C(Nc1ccc(S(=O)(=O)N[C@@H](C(=O)O)c2ccccc2)cc1)c1ccc(F)cc1` was tested, and the TGI was over 100 µM. Work on `CC(C)(C)c1nc2c(o1)C(=Nc1ccc(F)cc1)c1ccccc1C2=O` yielded a TGI of 8.03 µM. In the case of `C=C1CC2C(=O)N(c3ccccc3)C(=O)C2CC1n1[nH]c(=O)n(Cc2ccccc2)c1=O` (centres undefined), the TGI was over 100 µM. `c1ccc2c(c1)N=C(c1cccc3ccccc13)CC(c1cccc3ccccc13)S2` (centres undefined) was tested, and the TGI was 33 µM. Work on `NS(=O)(=O)c1ccc(NC(=O)c2cccc3c(=O)c4ccccc4[nH]c23)cc1` yielded a TGI of over 100 µM. Work on `COc1ccc(C2=NC(C)(C)CO2)cc1` yielded a TGI of over 100 µM.

These molecules were tested on PC-3 prostate (assay: NCI anticancer screen, dose series, 48 h).
In the case of `CC(C)(C)c1nc2c(o1)C(=Nc1ccc(F)cc1)c1ccccc1C2=O`, the TGI was over 100 µM.
